Measurements published in patent US20170291882A1, “Solid Forms of Mirabegron” (Apotex Inc., priority 2014, published 2017).
Values after ≈ are worked out from the molar mass of the structure shown. Read-outs that look alike come from different tables or passages of the source. One block for each molecule: values may come before it.

Legend:
[1] = Solubility testing of forms of Mirabegron (suspension stirred at room temperature, supernatant dried to constant weight); format: physicochemical
Description: Solubility testing was conducted by preparing a suspension of the subject form of Mirabegron in the indicated solvent and stirring the suspension for the indicated time period at room temperature. After this time, excess solid was removed by filtration and the volume of the supernatant was recorded. The supernatant was concentrated in vacuo and dried to constant weight to afford a solid. The solubility is shown as the weight of solid/volume of supernatant in mg/mL. The α-form and β-form of Mirabegron refer to the forms as characterized in CA 2 464 068 C.
Phosphate buffer was prepared by dissolving potassium dihydrogen phosphate (340 mg) and disodium hydrogen phosphate (353 mg) in deionized water (100 mL).

[2] = Hygroscopicity testing (desiccator with saturated ammonium sulphate solution, 25° C., 24 hours); format: physicochemical; details: 1 g, unstoppered vessel over saturated ammonium sulphate solution
Description: The hygroscopicity testing was conducted by placing 1 g of form APO-I Mirabegron in an unstoppered weighing vessel in a desiccator containing a saturated ammonium sulphate solution. The desiccator was placed in an oven at 25° C. for 24 hours. After this time, the percentage increase in mass was 0.89%.

[3] = cited from earlier work; for hygroscopicity (in words): as disclosed in CA 2 464 068 C

- solubility at 2 h ([1]; 0.1M HCl, simulated gastric fluid, thermodynamic from solid, 2 hours): 15 mg/mL (≈ 37.8 mM)
- Solubility ([1]; Distilled water, 2 hours, listed as APO-I): 0.5 mg/mL (≈ 1.26 mM)
- Solubility ([1]; Ethanol (denatured), 0.5 hours, listed as APO-I): 62.8 mg/mL (≈ 158 mM)
- Solubility ([1]; Phosphate buffer (pH 6.8), 2 hours, listed as APO-I): 6.2 mg/mL (≈ 15.6 mM)
- percentage increase in mass [2]: 0.89%
SMILES: Nc1nc(CC(=O)Nc2ccc(CCNC[C@H](O)c3ccccc3)cc2)cs1 [Form APO-I, Mirabegron]

- Solubility ([1]; 0.1M HCl, 2 hours): 13.0 mg/mL (≈ 32.8 mM)
- Solubility ([1]; Distilled water, 2 hours, listed as α): 0.2 mg/mL (≈ 0.504 mM)
- Solubility ([1]; Ethanol (denatured), 0.5 hours, listed as α): 21.3 mg/mL (≈ 53.7 mM)
- Solubility ([1]; Phosphate buffer (pH 6.8), 2 hours, listed as α): 2.5 mg/mL (≈ 6.3 mM)
SMILES: Nc1nc(CC(=O)Nc2ccc(CCNC[C@H](O)c3ccccc3)cc2)cs1 [Form α, (R)-2-(2-aminothiazol-4-yl)-4′-[2-[(2-hydroxy-2-phenylethyl)amino]ethyl]acetanilide]
- hygroscopicity (in words) ([3]; listed as α-form crystal): no hygroscopicity

- Solubility ([1]; Ethanol (denatured), 0.5 hours, listed as β): 27.2 mg/mL (≈ 68.6 mM)
SMILES: Nc1nc(CC(=O)Nc2ccc(CCNC[C@H](O)c3ccccc3)cc2)cs1 [Form β, (R)-2-(2-aminothiazol-4-yl)-4′-[2-[(2-hydroxy-2-phenylethyl)amino]ethyl]acetanilide]
- hygroscopicity (in words) ([3]; listed as β-form crystal): relatively low hygroscopicity
- moisture held (hygroscopic) ([3]; reported in CA 2 464 068 C): up to 3%
